According to patent US20220380371A1, “MLL1 INHIBITORS AND ANTI-CANCER AGENTS” (NOVARTIS AG, priority 2019, published 2022):
Where two headings read alike, the source gives them in different places.

Columns and labels:
[1] = target: wild type MLL1 four-member complex (MLL1-4C) (Homo sapiens, UniProt Q03164); test: MLL1 LC-MS Assay; format: biochemical
Protocol: The compounds of the present disclosure were serially and separately diluted 3-fold in DMSO to obtain a total of eight or twelve concentrations. Then the test compounds at each concentration (120 nL of each) were transferred by Mosquito into white Proxiplate plus 384-well microplate (PerkinElmer). Solutions (6 μL) of 60 nM wild type MLL1 four-member complex (MLL1-4C) and 5 μM SAM in the reaction buffer (20 mM Tris-HCl, pH 8.0, 0.01% Tween 20, 1 mM DTT, 10 mM MgCl2, 0.01% BSA) were added to the wells that were then incubated with the test compound for 20 min. A 6 μL solution of 20 μM of the peptide substrate H3K4me0 (histone H3[1-21]-Biotin) in the reaction buffer was added to initiate each reaction. The final components in the reaction solution include 30 nM MLL1-4C, 2.5 μM SAM, and 10 μM H3K4me0 with varying concentration of the compounds. A positive control consisted of 30 nM MLL1-4C, 2.5 μM SAM, and 10 μM substrate in the absence of the test compound, and a negative control consisted of 2.5 μM SAM, and 10 μM substrate only. Each reaction was incubated at rt for 120 min, then stopped by addition of 3 μL per of quench solution (2.5% TFA with 320 nM d4-SAH). The reaction mixture was centrifuged (Eppendorf centrifuge 5810, Rotor A-4-62) for 2 min at 2000 rpm. The SAH production from the enzymatic assays were monitored by LC-MS/MS on an API 4000 triple quadrupole mass spec with Turbolon Spray (Applied Biosystem) coupled with Prominenece UFLC (Shimazu). The level of SAH production were then normalized based on the values coming from the positive and negative controls to give percent enzyme activities. The data were then fit to a dose response equation using the program Helios (Novartis) to get the IC50 values of the test compounds.

[2] = system: MV4-11 cells; test: MV4-11 6-Day Cell Growth CTG (CellTiter-Glo) Assay; format: cell-based; conditions: Homo sapiens, MV4-11, 144 h, MV4-11 cell growth CellTiter-Glo, 6 days
Protocol: MV4-11 6-Day Cell Growth CTG (CellTiter-Glo) Assay
Acute myeloid leukemia cell MV4-11 (ATCC® CRL-9591™) was cultured with RPMI 1640 medium (Thermo Fisher Scientific, cat #11875) supplemented with 10% FBS (Thermo Fisher Scientific, cat #10099141) in humidified incubator at 37° C., 5% CO2. To assess the effect of MLL1 inhibition on cell growth, the compound of the present invention was dissolved in DMSO and serially diluted at 1:3 for 12 points starting from 10 mM then 200 nL for the replicate of each dose per well was dispensed to Viewplate-384 Black (Perkin Elmer). Exponentially growing MV4-11 cells were seeded at the density of 300 cells per well in 40 μL to the plate, so the final compound working concentration starts from 50 μM. After 6 days, 40 μL CellTiter-Glo (Promega, cat #G7573) was added into the cell culture well and luminescence was read with Envision (Perkin Elmer) to determine the viable cells. The percentage inhibition was calculated against the samples treated with DMSO only and the data were used for dose response curve fitting in GraphPad Prism to get the IC50 of representative compound of present invention, which reflects the inhibition of MLL1 activity.

[3] = system: H3K4me3 in MV4-11 cells; test: MV4-11 H3K4me3 Cellular ELISA Assay; format: cell-based; conditions: Homo sapiens, MV4-11, 48 h
Protocol: MV4-11 H3K4me3 Cellular ELISA Assay
MV4-11 (ATCC® CRL-9591™) was cultured with RPMI1640 medium (Thermo Fisher Scientific, cat #11875) supplemented with 10% FBS (Thermo Fisher Scientific, cat #10099141) and 50 U/ml Penicillin-Streptomycin (Thermo Fisher Scientific, cat #10378016) in humidified incubator at 37° C., 5% CO2.
200 nL compounds dissolved in DMSO were serially diluted at 1:3 ratio for 12 points starting from 10 mM and dispensed into each wells of cell culture plates (PDL-coated ViewPlate-384 Black, FTC, PerkinElmer, #6007710). 3,750 MV4-11 cells in 40 μL culture medium were seeded into each well and treated with desired concentration for 48 hours. After treatment, wash cells with cold phosphate based buffer (PBS, pH 7.4) and aspirate the remaining PBS buffer. Crude histone lysate was extracted by 40 μL 0.5M HCl for 1 hour in 4° C. following neutralization by adding 32 μL neutralization buffer (0.5M Sodium phosphate dibasic, pH ˜12.5, 1.25 mM Dithiothreitol, Promega #V3151, Protease Inhibitor Cocktail, Sigma #8340) for each well. 5 μL and 20 μL of histone lysate was loaded to ELISA plate (384 Well Plates, PE HB, White, 6005620) for detection of total H3 and H3K4me3, respectively. Shake the plates gently in 4° C. for overnight. After histone binding, plates were washed with 80 μL PBS/T (PBS with 0.05% Tween-20) and blocked with 50 μL 3% BSA diluted in PBS/T per well for 1 hour. Incubate wells with primary antibody for 1 hour at room temperature using anti-H3K4me3 (CST #9727) and anti-total H3 (CST #9715) diluted 1:2000 in 3% BSA. Plates were then washed with PBS/T for 3 times and incubated with horseradish peroxidase (HRP) conjugated secondary antibody (CST #7074, 1:5000) for 1 hour at room temperature. The abundance of H3K4me3 and total H3 were measured by ECL substrates chemiluminescence (Pierce, #34080) on a plate reader (PerkinElmer EnVison 2104 Mutilable Reader). Percentage inhibition was calculated against DMSO control after normalization of H3K4me3 signal to H3 signal for individual samples. The data were then fit to a dose response curve using GraphPad Prism for IC50 calculation.

Row | Compound | IC50 ([1]; read-out: LCMS) | IC50 [2] | IC50 [3] | IC50 ([1]; read-out: MLL1 LCMS)
1 | Nc1ncnc2c1ncn2Cc1c(N2CC[C@](N)(C(=O)NC3CC3)C2)ccc(F)c1CN1CCC(F)(F)C1 [Example 66] | < 50 nM | < 2000 nM | < 1900 nM | 
2 | CCc1c(F)ccc(N2CC[C@](N)(C(=O)NC3CC3)C2)c1Cn1cnc2c(N)ncnc21 [Example 10] | < 50 nM | < 2000 nM | < 1900 nM | 
3 | Nc1ncnc2c1ncn2Cc1c(N2CC[C@](N)(C(=O)NC3CC3)C2)ccc(F)c1CNCC(F)(F)F [Example 57] | 50 to 100 nM | < 2000 nM | < 1900 nM | 
4 | Nc1ncnc2c1ncn2Cc1c(N2CC[C@](N)(C(=O)NC3CC3)C2)ccc2cc(Br)ccc12 [Example 167] |  |  | < 1900 nM | < 50 nM
5 | CCc1c(Cl)cc(Cl)c(N2CC[C@](N)(C(=O)N3CCS(=O)(=O)CC3)C2)c1Cn1cnc2c(N)ncnc21 [Example 73] | > 100 nM | < 2000 nM | < 1900 nM | 
6 | Nc1ncnc2c1ncn2Cc1c(Br)c(Cl)c2c(c1N1CC[C@](N)(C(=O)NC3CC3)C1)CCC2 (stereo in doubt) [Example 42] | 50 to 100 nM | 2000 to 3000 nM | < 1900 nM | 
7 | CN(C)Cc1c(Cl)ccc(N2CC[C@](N)(C(=O)NC3CC3)C2)c1Cn1cnc2c(N)ncnc21 [Example 60] | 50 to 100 nM | < 2000 nM | < 1900 nM | 
8 | CN(Cc1c(F)ccc(N2CC[C@](N)(C(=O)NC3CC3)C2)c1Cn1cnc2c(N)ncnc21)C1CC1 [Example 48] | > 100 nM | 2000 to 3000 nM | < 1900 nM | 
9 | Nc1ncnc2c1ncn2Cc1c(N2CC[C@](N)(C(=O)NC3CC34CCOCC4)C2)ccc(F)c1C(F)(F)F (stereo partly shown) [Example 126] | 50 to 100 nM | < 2000 nM | < 1900 nM | 
10 | Nc1ncnc2c1ncn2Cc1c(N2CC[C@](N)(C(=O)NC3CC3)C2)ccc(F)c1CN1CC(F)C1 [Example 53] | 50 to 100 nM | < 2000 nM | < 1900 nM | 
11 | Nc1ncnc2c1ncn2Cc1c([C@@H](O)C(F)(F)F)cc(Cl)cc1N1CC[C@](N)(C(=O)NC2CC2)C1 [Example 33, (R)-3-amino-1-(2-((6-amino-9H-purin-9-yl)methyl)-5-chloro-3-((R)-2,2,2-trifluoro-1-hydroxyethyl)phenyl)-N-cyclopropylpyrrolidine-3-carboxamide] | 50 to 100 nM | > 3000 nM | 1900 to 3000 nM | 
12 | CCc1cc(Cl)cc(N2CC[C@](N)(CCc3nnc(NC)s3)C2)c1Cn1cnc2c(N)ncnc21 [Example 35] | 50 to 100 nM |  | > 3000 nM | 
13 | CC1CN(Cc2c(F)ccc(N3CC[C@](N)(C(=O)NC4CC4)C3)c2Cn2cnc3c(N)ncnc32)C1 [Example 64] | 50 to 100 nM | < 2000 nM | < 1900 nM | 
14 | Nc1ncnc2c1ncn2Cc1c(N2CC[C@](N)(C(=O)NC3CC3)C2)ccc(F)c1CN1CC[C@@H](F)C1 [Example 50] | < 50 nM | < 2000 nM | < 1900 nM | 
15 | CCc1c(C(F)(F)F)ccc(N2CC[C@](N)(C(=O)NC3CC3)C2)c1Cn1cnc2c(N)ncnc21 [Example 12] | 50 to 100 nM | < 2000 nM | < 1900 nM | 
16 | Cc1c(C(F)(F)F)ccc(N2CC[C@](N)(C(=O)NC3CC3)C2)c1Cn1cnc2c(N)ncnc21 [Example 11] | < 50 nM | < 2000 nM | < 1900 nM | 

Row | Compound | IC50 ([1]; read-out: LCMS) | IC50 [2] | IC50 [3] | IC50 ([1]; read-out: MLL1 LCMS)
17 | CCN(Cc1c(F)ccc(N2CC[C@](N)(C(=O)NC3CC3)C2)c1Cn1cnc2c(N)ncnc21)C1CC1 [Example 59] | < 50 nM | < 2000 nM | < 1900 nM | 
18 | Nc1ncnc2c1ncn2Cc1c(Br)cc(Cl)cc1N1CC[C@](N)(CCc2nn[nH]n2)C1 (single isomer, unassigned) [Example 39] | < 50 nM |  | > 3000 nM | 
19 | Nc1ncnc2c1ncn2Cc1c(N2CC[C@@](N)(C(=O)NC3CC3)C2)ccc2ccccc12 [Example 166] |  |  | < 1900 nM | 50 to 100 nM
20 | Nc1ncnc2c1ncn2Cc1c(Br)cc(Cl)cc1N1CC[C@](N)(c2cc(C(F)(F)F)ccn2)C1 [Example 27] | < 50 nM |  | > 3000 nM | 
21 | COC(=O)NCc1c(F)ccc(N2CC[C@](N)(C(=O)NC3CC3)C2)c1Cn1cnc2c(N)ncnc21 [Example 71] | < 50 nM |  | > 3000 nM | 
22 | CCc1cc(Cl)cc(N2CC[C@](N)(CCc3nn[nH]n3)C2)c1Cn1cnc2c(N)ncnc21 [Example 40] | > 100 nM |  | > 3000 nM | 
23 | CCNC(=O)CC[C@@]1(N)CCN(c2cc(Cl)cc(Br)c2Cn2cnc3c(N)ncnc32)C1 (single isomer, unassigned) [Example 36] | 50 to 100 nM |  | > 3000 nM | 
24 | NC(=O)CCC1(N)CCN(c2cc(Cl)cc(Br)c2Cn2cnc3c(N)ncnc32)C1 (stereo not shown) [Example 37] | > 100 nM |  | > 3000 nM | 
25 | Cc1ccc(Cl)c(Cn2cnc3c(N)ncnc32)c1N1CCC(N)(C(=O)NC2CC2)C1 (stereo not shown) [Example 157] |  |  | > 3000 nM | > 100 nM
26 | CCOC(=O)CC[C@@]1(N)CCN(c2cc(Cl)cc(Br)c2Cn2cnc3c(N)ncnc32)C1 [Example 34] | > 100 nM |  | < 1900 nM | 
27 | CN(C)Cc1c(Cl)cc(Cl)c(N2CC[C@](N)(C(=O)NC3CC3)C2)c1Cn1cnc2c(N)ncnc21 [Example 74] | > 100 nM |  | > 3000 nM | 
28 | Cn1nnc([C@@]2(N)CCN(c3cc(Cl)cc(Br)c3Cn3cnc4c(N)ncnc43)C2)n1 [Example 91, (R)-9-(2-(3-amino-3-(2-methyl-2H-tetrazol-5-yl)pyrrolidin-1-yl)-6-bromo-4-chlorobenzyl)-9H-purin-6-amine] | 50 to 100 nM |  | > 3000 nM | 
29 | COc1ccc(Br)c(Cn2cnc3c(N)ncnc32)c1N1CC[C@](N)(C(=O)NC2CC2)C1 [Example 21] | 50 to 100 nM |  | > 3000 nM | 
30 | CN(C)Cc1cc(Cl)c(Cl)c(N2CC[C@](N)(C(=O)NC3CC3)C2)c1Cn1cnc2c(N)ncnc21 [Example 89, (R)-3-amino-1-(2-((6-amino-9H-purin-9-yl)methyl)-5,6-dichloro-3-((dimethylamino)methyl)phenyl)-N-cyclopropylpyrrolidine-3-carboxamide] | > 100 nM |  | > 3000 nM | 
31 | Nc1ncnc2c1ncn2Cc1c(Br)cc(Cl)cc1N1CC[C@](N)(COCC(=O)NC2CC2)C1 [Example 30] | > 100 nM |  | > 3000 nM | 
32 | CCNC(=O)CC[C@@]1(N)CCN(c2cc(Cl)cc(CC)c2Cn2cnc3c(N)ncnc32)C1 [Example 38] | < 50 nM |  | > 3000 nM | 
